# B1: perhydrolase: wild-type M. smegmatis perhydrolase enzyme, amino acid sequence SEQ ID NO:2 (protein, listed as Mycobacterium smegmatis)
# chain: MAKRILCFGDSLTWGWVPVEDGAPTERFAPDVRWTGVLAQQLGADFEVIEEGLSARTTNIDDPTDPRLNGASYLPSCLATHLPLDLVIIMLGTNDTKAYFRRTPLDIALGMSVLVTQVLTSAGGVGTTYPAPKVLVVSPPPLAPMPHPWFQLIFEGGEQKTTELARVYSALASFMKVPFFDAGSVISTDGVDGIHFTEANNRDLGVALAEQVRSLL
# System: human CD4+ T-cells
molecule,measurement,setting,value
QLIFEGGEQKTTELA (listed as Mycobacterium smegmatis) [SEQ ID NO:53],identification of peptide T-cell epitope (significant response in donor pool),"5 μM peptide, human donors",one peptide of interest was identified
tetanus toxoid [reference compound],positive control proliferative response,tetanus toxoid at approximately 5 Lf/mL,robust positive control responses
B1,structure index value (relative immunogenicity),"scale 0 to 2, the closer to 2.0 the more immunogenic",< 0.5

# From patent publication US8871722B2, “Perhydrolase epitopes” (Danisco US Inc., priority 2005, dated 2014)
